Legend:
endothelial cells = assay: dsDNA in exosomes released by endothelial cells stimulated by cytokines; format: cell-based; settings: cytokine stimulation; FIG. 17, 18
Description: The dsDNA in exosomes released by endothelial cells stimulated by cytokines TNFα and IL17 was detected.

mouse = assay: IL-1b injection into ears of the mouse; format: in vivo; settings: injected into ears of the mouse; FIG. 26, 27
Description: dsDNA-AIM2 finally released the cytokine IL-1b to act on the body.

“IL17: cytokine IL17, clinically relevant cytokine for psoriasis” was tested. Which “dsDNA content in exosomes released by endothelial cells” value (endothelial cells) did it give?
Its value is “significantly stimulated the dsDNA content in exosomes released by endothelial cells”.

IL-1b: cytokine interleukin 1b was tested. Which “psoriasis-like response in a mouse (skin phenotype, spleen, pathology)” value (mouse) did it give?
The value was “cause psoriasis-like skin phenotype, spleen enlargement and pathological changes”.

Which “dsDNA content in exosomes released by endothelial cells” value (endothelial cells) does the source give for TNFα here?
The value was “significantly stimulated the dsDNA content in exosomes released by endothelial cells”.
